Assay results as given in PMC12095047, “Transport of phenoxyacetic acid herbicides by PIN-FORMED auxin transporters” (Nature Plants, 2025).
Several values for one entry are separate records, joined by “and”; a condition that tells them apart may be missing. Equal entries are not always repeated. Where two headings read alike, the source gives them in different places.

Experiments:
A. thaliana PIN8 = target: T1, A. thaliana PIN8 (Arabidopsis thaliana, UniProt Q9LFP6); experiment: SSM electrophysiology, peak current response on PIN8 proteoliposomes; type: biochemical; conditions: for Peak current: individual sensors
T1 construct: made in house
T1 sequence (Q9LFP6 1-367): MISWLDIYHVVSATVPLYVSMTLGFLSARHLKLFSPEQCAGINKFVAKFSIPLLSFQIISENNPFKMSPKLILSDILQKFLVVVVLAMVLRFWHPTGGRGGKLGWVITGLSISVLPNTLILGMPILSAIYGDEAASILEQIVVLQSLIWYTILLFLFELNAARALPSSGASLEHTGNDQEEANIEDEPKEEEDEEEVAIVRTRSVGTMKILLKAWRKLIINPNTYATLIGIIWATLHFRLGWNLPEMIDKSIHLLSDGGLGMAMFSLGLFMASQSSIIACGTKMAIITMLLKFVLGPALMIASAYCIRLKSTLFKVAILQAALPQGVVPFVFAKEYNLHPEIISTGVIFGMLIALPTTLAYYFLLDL
Procedure: (§1) SSM, using a SURFE2R N1 from Nanion Technologies, was conducted as described. In brief, soy polar lipid mix (38% phosphatidyl choline, 30% phosphatidyl ethanolamine, 18% phosphatidyl inositol, 7% phosphatidic acid and 7% other soy lipids) and 1-palmitoyl-2-oleoyl-sn-glycero-3-phosphocholin were purchased from Avanti. Liposomes were prepared in Ringer solution without Ca^2+ (115 mM NaCl, 2.5 mM KCl, 1 mM NaHCO3, 10 mM HEPES pH7.4, 1 mM MgCl2) and homogenized using a Lipsofast (Avestin) with a […]. Triton X-100 was added to the liposomes to a final concentration of 1% (v/v). Protein was added to liposomes to a calculated lipid-to-protein ratio (LPR) of 10 unless stated otherwise. The detergent was removed using 400 mg ml^−1 Bio Beads (BioRad) overnight at 4 °C in a rotary shaker. Proteoliposomes were frozen in liquid nitrogen and kept at −80 °C until use. Proteoliposomes were diluted 1:5 in Ringer solution without Ca^2+, sonicated five times and then applied to the sensors by centrifugation (30 min, 3,000 g, 4 °C). Non-activating buffer was Ringer solution without Ca^2+ as described unless specified otherwise, and activating buffer contained the substrate of interest. In most instances we used a single-solution exchange experiment. In this case proteoliposomes, immobilized on the supported membrane, are kept in non-activating buffer as specified. At the beginning of the experiment the non-activating buffer is replaced with fresh identical non-activating buffer, and after 1 s, activating buffer (same buffer containing substrate) is added. After another second, the buffer is replaced with non-activating buffer again. Current response is recorded throughout the entire 3 s. For competition or inhibition, the respective compound was present in non-activating and activating solutions. Each experiment was performed on at least two individual sensors. On each sensor each measurement consists of three technical replicates where the mean is calculated. KD values were determined as described previously. Briefly, the binding current induced by 100 µM NPA was recorded in the presence of different concentrations of the substrate under investigation ranging between 0 µM and 1,000 µM present in the activating solution and the non-activating solution (Extended Data Fig. 5b). […] The maximum peak current was then plotted as a function of the concentration of the substrate under investigation and plotted against the degree of inhibition and fitted with a one-site binding model using GraphPad Prism V10.4.1 The half maximal concentration corresponds to the KD of the substrate under investigation.

PIN8 S146A = target: T2, PIN8 S146A (Arabidopsis thaliana, UniProt Q9LFP6, S146A); type: biochemical; conditions: for Peak current: S146A, individual sensors
T2 construct: made in house
T2 sequence (Q9LFP6 whole entry S146A): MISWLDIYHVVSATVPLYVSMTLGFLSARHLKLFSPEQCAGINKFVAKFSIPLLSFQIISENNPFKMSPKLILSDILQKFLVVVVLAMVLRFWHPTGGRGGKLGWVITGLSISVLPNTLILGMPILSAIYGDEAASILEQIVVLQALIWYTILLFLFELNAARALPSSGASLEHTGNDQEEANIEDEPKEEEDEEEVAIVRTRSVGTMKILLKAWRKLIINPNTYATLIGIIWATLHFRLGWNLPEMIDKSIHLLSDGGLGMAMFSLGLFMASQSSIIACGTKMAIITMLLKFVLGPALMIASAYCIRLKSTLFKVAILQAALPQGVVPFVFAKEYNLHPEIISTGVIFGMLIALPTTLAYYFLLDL
Procedure: as §1
(§2) The protocol for expression and purification of AtPIN8 protein (Uniprot: Q9LFP6) in lauryl maltose neopentyl glycol was described previously. All point mutants were generated using Q5 Site-Directed mutagenesis kit (New England Biolabs). The C-flat Holey Carbon grids (CF-1.2/1.3, Cu-300 mesh) were glow-discharged for 45 s at 15 mA in a GloQube Plus (Quorum). […] After 1 h of incubation on ice, the sample was centrifuged at 16,000 g for 15 min before blotting to remove precipitation. A drop of 4 µl of each sample was applied to the glow-discharged grids, blotted with a Vitrobot Mark IV (ThermoFisher Scientific) using the following settings (temperature 4 °C, 100% humidity, blot time of 4 s, blot force −1) and vitrified in liquid ethane.

PIN8 S55A = target: T3, PIN8 S55A (Arabidopsis thaliana, UniProt Q9LFP6, S55A); type: biochemical; conditions: for Peak current: S55A, individual sensors
T3 construct: made in house
T3 sequence (Q9LFP6 whole entry S55A): as the sequence (Q9LFP6 whole entry S146A) above, with S55A, A146S counted along it
Procedure: as §1, §2

PIN8 Y150F = target: T4, PIN8 Y150F (Arabidopsis thaliana, UniProt Q9LFP6, Y150F); type: biochemical; conditions: PIN8 Y150F, Michaelis–Menten fit
T4 construct: made in house
T4 sequence (Q9LFP6 whole entry Y150F): as the sequence (Q9LFP6 whole entry S146A) above, with A146S, Y150F counted along it
Procedure: as §1, §2

PIN8 I51Y = target: T5, PIN8 I51Y (Arabidopsis thaliana, UniProt Q9LFP6, I51Y); type: biochemical; conditions: Michaelis–Menten fit
T5 construct: made in house
T5 sequence (Q9LFP6 whole entry I51Y): as the sequence (Q9LFP6 whole entry S146A) above, with I51Y, A146S counted along it
Procedure: as §1, §2

PIN8 N223A = target: T6, PIN8 N223A (Arabidopsis thaliana, UniProt Q9LFP6, N223A); type: biochemical; conditions: N223A
T6 construct: made in house
T6 sequence (Q9LFP6 whole entry N223A): as the sequence (Q9LFP6 whole entry S146A) above, with A146S, N223A counted along it
Procedure: as §1, §2

PIN8 S266A = target: T7, PIN8 S266A (Arabidopsis thaliana, UniProt Q9LFP6, S266A); type: biochemical; conditions: PIN8 S266A, Michaelis–Menten fit
T7 construct: made in house
T7 sequence (Q9LFP6 whole entry S266A): as the sequence (Q9LFP6 whole entry S146A) above, with A146S, S266A counted along it
Procedure: as §1, §2

PIN8 = target: T8, PIN8 (Arabidopsis thaliana, UniProt Q9LFP6); experiment: SSM electrophysiology, KD by inhibition of the NPA binding current
T8 construct: made in house
T8 sequence (Q9LFP6 1-367): T1 sequence (Q9LFP6 1-367)
Procedure: as §1

[1] = WT PIN8 proteoliposomes, Michaelis–Menten fit
[2] = read-out: EC50 of peak current response

Compound: O=C(O)COc1ccc(Cl)cc1Cl [2,4-D, 2,4-dichlorophenoxyacetic acid]
- Peak current (A. thaliana PIN8; 100 μM 2,4-D, absence of NPA): 3.226 nA and 5.875 nA
- Peak current (A. thaliana PIN8; 100 μM 2,4-D, presence of 20 µM NPA): 0.9715 nA and 1.501 nA and 1.34 nA
- EC50 (A. thaliana PIN8; [1]): 180 µM and 179 µM
- maximal current Imax (A. thaliana PIN8; [1]): 17 ± 2 nA
- Peak current (A. thaliana PIN8; WT, 5 µM substrate): 0.6835 nA and 0.6464 nA and 0.7573 nA
- Peak current (A. thaliana PIN8; WT, 20 µM substrate): 2.106 nA and 1.934 nA and 2.262 nA
- Peak current (A. thaliana PIN8; WT, 50 µM substrate): 4.032 nA and 3.705 nA
- Peak current (A. thaliana PIN8; WT, 2000 µM substrate): 15.4919 nA and 14.1952 nA and 17.3107 nA
- Imax (PIN8 S146A; PIN8 S146A, Michaelis–Menten fit): 8 ± 0.9 nA
- EC50 (PIN8 S146A; PIN8 S146A, Michaelis–Menten fit, read-out: EC50 of peak current response): 164 ± 67 µM
- Peak current (PIN8 S146A; 5 µM substrate): 0.446 nA and 0.486 nA and 0.471 nA and 0.573 nA
- Peak current (PIN8 S146A; 20 µM substrate): 1.337 nA and 0.845 nA and 1.226 nA and 1.49 nA
- Peak current (PIN8 S146A; 50 µM substrate): 2.387 nA and 1.739 nA and 2.167 nA and 2.694 nA
- Peak current (PIN8 S146A; 100 µM substrate): 3.422 nA and 2.581 nA and 3.052 nA and 3.828 nA
- Peak current (PIN8 S146A; 500 µM substrate): 6.088 nA and 4.842 nA and 5.334 nA and 6.787 nA
- Peak current (PIN8 S146A; 1000 µM substrate): 7.15 nA and 6.069 nA and 6.109 nA and 7.864 nA
- Peak current (PIN8 S146A; 2000 µM substrate): 8.119 nA and 7.96 nA and 6.88 nA and 9.033 nA
- Imax (PIN8 S55A; PIN8 S55A, Michaelis–Menten fit): 6 ± 0.6 nA
- EC50 (PIN8 S55A; PIN8 S55A, Michaelis–Menten fit, read-out: EC50 of peak current response): 95 ± 36 µM
- Peak current (PIN8 S55A; 5 µM substrate): 0.5771 nA and 0.4543 nA and 0.3145 nA and 0.4609 nA
- Peak current (PIN8 S55A; 20 µM substrate): 1.612 nA and 1.263 nA and 1.114 nA and 1.2922 nA
- Peak current (PIN8 S55A; 50 µM substrate): 2.6274 nA and 2.193 nA and 2.012 nA and 0.000174 nA
- Peak current (PIN8 S55A; 100 µM substrate): 3.62 nA and 3.055 nA and 2.8112 nA and 3.289 nA
- Peak current (PIN8 S55A; 500 µM substrate): 5.907 nA and 5.083 nA and 4.589 nA and 5.296 nA
- Peak current (PIN8 S55A; 1000 µM substrate): 6.235 nA and 5.542 nA and 4.855 nA and 5.533 nA
- Peak current (PIN8 S55A; 2000 µM substrate): 6.017 nA and 5.654 nA and 4.774 nA and 5.542 nA
- Imax (PIN8 Y150F): 8 ± 2 nA
- EC50 (PIN8 Y150F; [2]): 816 ± 275 µM
- Imax (PIN8 I51Y): 3 ± 0.8 nA
- EC50 (PIN8 I51Y; [2]): 641 ± 77 µM
- fold-change difference to the respective EC50 of wildtype PIN8 (PIN8 N223A): completely abolishes binding
- Imax (PIN8 S266A): 12 ± 0.7 nA
- EC50 (PIN8 S266A; [2]): 774 ± 70 µM
- Kd (PIN8; Peak current, sheet F2A (Fig. 2a, KD of substrate binding), individual sensors): 64.4 µM and 50.6 µM and 62.3 µM
- Kd (PIN8; inhibition of peak current elicited by 100 µM NPA, read-out: KD of substrate binding by PIN8): 59 ± 7 µM
- inhibition at 20 µM (PIN8; read-out: Rel. Inhibition of NPA peak currents, 20 µM substrate, 100 µM NPA, individual sensors): 22.5%
- inhibition at 50 µM (PIN8; read-out: Rel. Inhibition of NPA peak currents, 50 µM substrate, 100 µM NPA, individual sensors): 46.2%
- inhibition at 100 µM (PIN8; read-out: Rel. Inhibition of NPA peak currents, 100 µM substrate, 100 µM NPA, individual sensors): 65.6%
- inhibition at 250 µM (PIN8; read-out: Rel. Inhibition of NPA peak currents, 250 µM substrate, 100 µM NPA, individual sensors): 83.2%
- inhibition at 500 µM (PIN8; read-out: Rel. Inhibition of NPA peak currents, 500 µM substrate, 100 µM NPA, individual sensors): 91.1%
- inhibition at 1000 µM (PIN8; read-out: Rel. Inhibition of NPA peak currents, 1000 µM substrate, 100 µM NPA, individual sensors): 95.2%
